Values quoted from earlier work, collected in patent publication US4100185A, “Cyclohexanone 5,6-benzo analogues of prostaglandin E” (Miles Laboratories, Inc., priority 1977, dated 1978).
Entries after “also recorded” stand apart in the source; their conditions may differ. Where two headings read alike, the source gives them in different places.

Legend:
[1] = tested on: motor pathways in the central nervous system
[2] = tested on: adrenergic nervie endings; settings: guinea pig
tracheal smooth muscle = settings: in vitro
gastric secretion [3] = settings: dogs
growth hormone = settings: rats
blood platelets = settings: in vitro
adrenal glands = settings: hypophysectimized rats
[4] = tested on: ovarian progesterone secretion; settings: sheep
thyroid = settings: mice
[5] = tested on: female reproductive system; settings: in vivo
[6] = variety of mammals
gastric secretion [7] = settings: man

Row | SMILES | effect on transmission in motor pathways [1] | effect on transmitter release from adrenergic nerve endings [2] | effect on tracheal smooth muscle (tracheal smooth muscle) | effect on gastric secretion (gastric secretion [3]) | effect on growth hormone (growth hormone) | effect on thrombogenesis (blood platelets) | effect on steroidogenesis in the adrenal glands (adrenal glands) | effect on ovarian progesterone secretion [4] | effect on thyroid activity (thyroid) | effect on fertility, gestation, labor [5] | luteolytic effect [6] | effect on gastric secretion (gastric secretion [7])
1 | CCCCC[C@H](O)/C=C/[C@H]1[C@H](O)CC(=O)[C@@H]1CCCCCCC(=O)O [PGE1, prostaglandin E1] | retards | inhibit transmitter release from adrenergic nervie endings | relax | inhibit gastric secretion | increase release of growth hormone | inhibits thrombogenesis in vitro | stimulate steriodogenesis in the adrenal glands | inhibit ovarian progesterone secretion | increase thyroid activity | – | – | –
2 | CCCCC[C@H](O)/C=C/[C@@H]1[C@@H](CCCCCCC(=O)O)[C@H](O)C[C@H]1O [PGF1β] | – | – | – | – | – | – | – | – | increase thyroid activity | – | – | –
3 | CCCCC[C@H](O)/C=C/[C@@H]1[C@@H](C/C=C\CCCC(=O)O)[C@@H](O)C[C@H]1O [PGF2α] | facilitates transmission in motor pathways in the central nervous system | – | contracts the smooth muscle | – | – | – | – | – | – | has contragestational effects; also recorded: induces spontaneous abortions in early pregnancy | – | –
4 | CCCCC[C@H](O)/C=C/[C@@H]1[C@@H](CCCCCCC(=O)O)[C@@H](O)C[C@H]1O [PGF1α] | – | – | – | – | – | – | stimulate steriodogenesis in the adrenal glands | inhibit ovarian progesterone secretion | increase thyroid activity | – | act as luteolytic factors | –
5 | CCCCC[C@H](O)/C=C/[C@H]1[C@H](O)CC(=O)[C@@H]1C/C=C\CCCC(=O)O [PGE2] | – | inhibit transmitter release from adrenergic nervie endings | relax | inhibit gastric secretion | increase release of growth hormone | – | stimulate steriodogenesis in the adrenal glands | – | increase thyroid activity | exerts potent oxytocic effects in inducing labor | – | –
6 | CCCCC[C@H](O)/C=C/[C@H]1C=CC(=O)[C@@H]1CCCCCCC(=O)O [PGA1] | – | – | – | inhibit gastric secretion | increased synthesis of that hormone | – | – | – | – | – | – | exhibits similar activity in man
